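Five concentrations, 48 hours, 96-well plates. Abbreviation: GI50, concentration required for 50% inhibition of growth. The concentration for full growth arrest is given as TGI.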
How the values were obtained:
Test in all cases: NCI-60 cell line screen, 48 h
[1] = tested on: HCT-116 colon
[2] = tested on: HT29 colon
[3] = tested on: M14 melanoma
[4] = tested on: MDA-MB-231 breast
[5] = tested on: NCI-H460 lung
[6] = tested on: SF-268 CNS
[7] = tested on: SK-MEL-28 melanoma
[8] = tested on: SR leukemia
[9] = tested on: U251 CNS
[10] = tested on: EKVX NSCLC

Row | SMILES | GI50 [1] [µM] | TGI [1] [µM] | GI50 [2] [µM] | TGI [2] [µM] | GI50 [3] [µM] | TGI [3] [µM] | GI50 [4] [µM] | TGI [4] [µM] | GI50 [5] [µM] | TGI [5] [µM] | GI50 [6] [µM] | TGI [6] [µM] | GI50 [7] [µM] | TGI [7] [µM] | GI50 [8] [µM] | TGI [8] [µM] | GI50 [9] [µM] | TGI [9] [µM] | TGI [10] [µM] | GI50 [10] [µM]
1 | Cn1cc(C2=C(c3cn(CCCN=C(N)N)c4ccccc34)C(=O)NC2=O)c2ccccc21 | > 25 | > 25 | > 25 | > 25 | > 25 | > 25 | > 25 | > 25 | > 25 | > 25 | > 25 | > 25 | > 25 | > 25 | 7.22 | > 25 | > 25 | > 25 |  | 
2 | CCC1(O)C(=O)OCc2c1cc1n(c2=O)Cc2cc3c(N)cccc3nc2-1 (stereo unspecified) |  | 0.735 |  | 22.8 | < 0.01 | 0.0872 |  | 14.2 |  | 1.13 |  | 0.579 |  | 9.19 |  | < 0.0114 |  | 1.21 | 30.3 | 
3 | CCCCCCCCCCC(O)C1CCC(C2CCC(C(O)CCCCC(O)CCCCCC(O)CC3=CC(C)OC3=O)O2)O1 (stereo unspecified) | 1.04 | > 25 |  |  | 3.76 | > 25 | 4.82 | > 25 | 10.7 | > 25 | > 25 | > 25 | 4.28 | > 25 |  | > 25 | 5.65 | > 25 | > 25 | > 25
4 | COc1ccc(C(=O)/C=C/c2cccnc2Nc2cc(OC)c(OC)c(OC)c2)cc1 | 0.54 | 2.1 | 0.38 | 1.6 | 2.55 | 11.9 | 2.67 | 12.4 | 1.84 | 8.57 | 3.04 | 14.8 | 2.7 | 8.29 | 0.0949 | 2.43 | 0.926 | 7 | 19.2 | 5.11
5 | CN(C)C(=S)SN(C)C(=O)Nc1ccccc1 |  | > 67.4 |  | 24.4 |  | 47.9 |  | > 100 |  | > 53.7 |  | 99.9 |  | 53.6 |  | 72.3 |  | > 93.8 | > 100 | 
6 | O=C(O)c1cc(N=Nc2ccc([As](=O)(O)O)cc2)ccc1O |  | > 100 |  | > 100 |  | > 100 |  | > 100 |  | > 100 |  | > 100 |  | > 100 |  | > 100 |  | > 100 | > 100 | 
7 | CC12CCCC(CC(=O)c3[nH]c4ccccc4c31)C2 (stereo unspecified) | 0.429 | 18.9 | 0.377 | 6.27 | 0.399 | 17.3 | 3.26 | 43.1 | 1.58 | 19.7 | 1.94 | > 65.2 | 2.03 | > 100 | 0.238 | 66.1 | 0.689 | 34.7 | > 100 | 1.55
8 | C[C@]12CC[C@@H]3c4ccc(O)cc4CC[C@H]3[C@@H]1CC[C@@H]2NS(=O)(=O)c1ccc(C(F)(F)F)cc1 | 1.74 | 3.19 | 2.01 | 3.94 | 1.9 | 3.6 | 1.74 | 3.31 | 1.98 | 4.11 | 3.1 | 11.8 | 1.68 | 3.08 | 2.43 | 7.5 | 1.75 | 3.3 |  | 
9 | C[C@]12CC[C@@H]3c4ccc(Oc5nc(N6CC6)nc(N6CC6)n5)cc4CC[C@H]3[C@@H]1CCC2=O | 2.46 | 18.8 | 4.39 | 19.4 | 3.58 | 21.7 | 10.2 | 25.2 | 0.517 | 2.79 | 2.05 | 17.9 | 6.01 | 42.8 | 0.351 | 11.4 | 2 | 11.7 |  | 
10 | NC(N)=NC(N)=Nc1cc2ccccc2c2ccccc12 | 5.33 | 18.3 | 7.83 | 23.6 | 10.6 | 24.7 | 3.52 | 16 | 5.13 | 19.4 | 9.61 | 24.1 | 13.2 | 26.2 | 2.68 | 9.34 | 4.83 | 18.1 | 29.1 | 12
11 | COc1ccc(-c2cc3c(nn2)-c2ccccc2C3=O)cc1 | 70.2 | > 100 | > 100 | > 100 | > 100 | > 100 | 70 | > 100 | > 100 | > 100 | > 100 | > 100 | > 100 | > 100 | 14.7 | > 100 | > 100 | > 100 | > 10 | 
12 | CC(=O)[O][Hg][c]1c(C)c(C)c(C)c(C)c1C | 3.38 | 11.8 | 2.02 | 4.77 | 1.35 | 2.65 | 0.552 | 1.31 | 0.747 | 2.26 | 0.549 | 2.11 | 1.26 | 2.63 | 0.127 |  | 0.399 | 1.61 | 3.54 | 1.89
13 | Cn1cc(C2=C(c3cn(C)c4c(N)cccc34)C(=O)NC2=O)c2ccccc21 | 1.03 | > 20.6 | 1.25 | 12.8 | 2.15 | > 25 | 4.63 | 20.8 | 1.08 | > 25 | 2.86 | > 25 | 3.43 | > 20.6 | 0.407 | > 25 | 1.19 | > 19.2 |  | 
14 | O=C(CCCSc1nc(-c2ccc(Cl)cc2)cc(-c2ccc(Cl)cc2)n1)NO | 0.532 | 17 | 1.14 | 60 |  |  | 1.71 | 13.2 | 0.44 | 4.11 | 1.21 | 7.72 | 3.15 | 17 | 0.339 | 13 | 0.693 | 13 | 12.7 | 1.14

From PubChem BioAssay (NCI)
